What all share (format): in vivo
In experiment [1] the test system is BALB/c, C3H/HeJ, or C57BL/6 mice. The experiment can be described thus: Serum polypeptide-specific IgG ELISA after immunization with LSA3-NRII polypeptides. From the text:
To investigate the ability of lipid-tailed polypeptides to induce systemic antibody responses using mucosal route, the LSA3-NRII lipid-tailed polypeptide was administrated either intranasally (I.N.) or sub-lingually (S.L.) in BALB/c, C3H/HeJ which were found previously to respond strongly to the epitopes of LSA3-NRII, or C57BL/6 mice which is poorly responsive. Negative and positive controls received respectively, the non-lipidated polypeptide administrated by IN and S.L. route, or the same lipid-tailed polypeptide injected subcutaneously (S.C.) without adjuvant.
Individual blood samples were obtained via the retro-orbital plexus by 9 to 15 days post immunization (dpi) and sera were stored at-70i C until assayed for IgG, IgA and IgM polypeptide- and parasite-specific Abs. The presence of anti-peptide antibodies in sera was determined using Enzyme-linked immunosorbent assay (ELISA) as reported previously (BenMohamed et coll., 1997). ELISA plates (Nunc, Roskilde, Denmark) were coated overnight at 4i C with 0.1 ml of LSA3-NRII or LSA1-J polypeptide solution at 3 zg/ml in PBS buffer pH 7.4 containing 3% BSA. The LSA1-J polypeptide was used as the irrelevant control of LSA3-NRII and vice versa. The plates were washed twice in PBS with 0.01% Tween-20 (PBS-T), blocked for 1 hr in PBS-T supplemented with 1% BSA prior to the addition of 0.1 ml of 1/100 dilution of mouse sera. The plates were then incubated at 37iC for one hour. After washing, the bound IgG were detected using peroxidase-conjugated goat anti-mouse IgG (Biosys, Compiegne, France) added at a 1/2000 dilution. Following incubation at 37iC for 1 hour and a final wash, 50 μl of 0.30% H2O2 containing orthophenylenediamine dihydrochloride (OPD, Sigma, St. Louis), dissolved in 0.1 M citrate buffer (pH 5.0) were added to each well at room temperature. The OD450 nm was measured using a multichannel spectrophotometer (Titertek Multiskan MCC. 340). Individual sera from all groups were diluted 1/100 and analyzed separately. Preimmune sera were used as negative controls and the results were expressed either as optical density (OD) at 450nm or as ELISA-RATIO calculated as follows: OD450 nm postimmune sera divided by OD450 nm preimmune sera. […] Isotype analysis of mouse was carried out using class specific […] Goat anti-Mouse IgA, IgM, IgGI, IgG2a, IgG2b or IgG3 HRP-Labeled (Southern Biotechnology Associates, Birmingham, USA) added at a 1/2000 dilution in PBS-T, as previously described (BenMohamed et coll., 1997).
For orientation: An ELISA detects its analyte on a solid surface through an enzyme-linked reagent.

The subject of experiment [2] is C3H/HeJ mice. The experiment can be described thus: Isotype analysis of polypeptide-specific serum antibodies (ELISA).
The test system of experiment [3] is P. falciparum sporozoites and hepatic schizonts. The experiment can be described thus: Immunofluorescent Ab assay (IFAT) of sera from mucosally immunized mice. The procedure: FIG. 2: Mucosal immunization elicits parasite-specific antibody responses. Sera were obtained from C3H/HeJ mice at 2 weeks post-immunization by either nasal or sub-lingual route and assayed fro recognition of (a) P. falciparum sporozoites and (B) hepatic schizonts in an IFI assay as described in Material and Methods. The data are representative of three independent experiments.
The reactivity of the sera against native proteins from various stages of the parasite were analyzed by IFAT using either (i) P. falciparum NF54 strain sporozoites (a gift of W. Eling), or (ii) sections from liver biopsies containing day 5 P. falciparum liver schizonts, or (iii) day 6 ½ P. falciparum liver schizonts obtained from a Chimpanzee. IFAT-labeled anti-human IgG, -A, -M (Diagnostic Pasteur France) or anti-mouse (Cappel. Wester Chester. PA) diluted {fraction (1/200 )} were employed as second Abs.

For experiment [4], the system named is spleen and inguinal lymph node cells of C3H/HeJ mice. In words: Lymphocyte proliferative assay after immunization with LSA3-NRII polypeptides. How it is done: FIG. 3: Systemic cellular immune responses are electited by presentation of lipid-tailed polypeptides to the nasal and sub-lingual mucosal surfaces. Groups of five C3H/HeJ mice were administrated with LSA3-NRII lipid-tailed (black bars) or non-lipidated polypeptide (hatched bars) either a) intranasally, b) sub-lingually, or c) subcutaneously. Two weeks after two administrations, cell suspensions from individual spleens were assayed for in vitro proliferation to the recall polypeptide. Results are expressed as Δ cpm. The background cpm, in unstimulated cells were 1548 fro intranasal, 2356 for sub-lingual and 1965 for subcutaneous routs. Bars represent the mean Δ cpm ± SD in each group. The data were similar and are representative of three separate experiments.

Experiment [5] concerns ganglia sub-mandibulaires cells of BALB/c mice.

These results are taken from patent publication US20030049267A1, “Systemic immune response induced by mucosal administration of lipid-tailed polypeptides without adjuvant” (INSTITUT PASTEUR, priority 1999, published 2003).

*: point of attachment. Palmitoyl = CCCCCCCCCCCCCCCC(=O)*

As for “Ac-LEESQVNDDIFNSLVKSVQQEQQHNVK(Pam)NH2 (Ac-LEESQVNDDIFNSLVKSVQQEQQHNVK(Palmitoyl)-NH2; SMILES CCCCCCCCCCCCCCCC(=O)NCCCC[C@H](NC(=O)[C@@H](NC(=O)[C@H](CC(N)=O)NC(=O)[C@H](Cc1c[nH]cn1)NC(=O)[C@H](CCC(N)=O)NC(=O)[C@H](CCC(N)=O)NC(=O)[C@H](CCC(=O)O)NC(=O)[C@H](CCC(N)=O)NC(=O)[C@H](CCC(N)=O)NC(=O)[C@@H](NC(=O)[C@H](CO)NC(=O)[C@H](CCCCN)NC(=O)[C@@H](NC(=O)[C@H](CC(C)C)NC(=O)[C@H](CO)NC(=O)[C@H](CC(N)=O)NC(=O)[C@H](Cc1ccccc1)NC(=O)[C@@H](NC(=O)[C@H](CC(=O)O)NC(=O)[C@H](CC(=O)O)NC(=O)[C@H](CC(N)=O)NC(=O)[C@@H](NC(=O)[C@H](CCC(N)=O)NC(=O)[C@H](CO)NC(=O)[C@H](CCC(=O)O)NC(=O)[C@H](CCC(=O)O)NC(=O)[C@H](CC(C)C)NC(C)=O)C(C)C)[C@@H](C)CC)C(C)C)C(C)C)C(C)C)C(N)=O) [LSA3-NRII lipid-tailed polypeptide, P. falciparum LSA-3 derived polypeptide with palmitoyl tail on side chain of C-terminal lysylamide]”, the antibody response entry in experiment [1] (C57BL/6 strain, mucosal or subcutaneous administration) is “No antibody response”. For the same substance, the “polypeptide-specific antibody responses in serum (ELISA)” value in experiment [1] (I.N. or S.L. administration, without adjuvant, BALB/c and C3H/HeJ, serum two weeks after the second administration) is given as “high titers”. Further, the “mean titers of IgG antibodies, mucosal routes versus S.C. route” value in experiment [1] (both mucosal routes (I.N., S.L.) compared with S.C., p<0.05) was “significantly higher”. The “polypeptide specific antibody titers, sub-lingual versus intranasal groups” value in experiment [1] (p<0.05 in BALB/c and p<0.01 in C3H/HeJ) was “significantly higher”. Further, the “anti-peptide IgA, IgM and IgG3” value in experiment [2] (all groups (I.N., S.L., S.C.)) is “low and similar titers”. Besides, the “serum antibody isotype response” value is reported as “preferential IgG2a” in experiment [2] (mucosal administration (I.N., S.L.)) and “dominant IgG1” in experiment [2] (subcutaneous route). Besides, the “reactivity of induced Abs with infected RBC's” value in experiment [3] (different steps of intra-erythrocytic maturation) is listed as “did not react”. In experiment [3] (sera of mucosally immunized BALB/c and C3H/HeJ, sporozoite and liver stages), the “reactivity of induced Abs with intact parasite by IFAT” value is listed as “react with the intact parasite”. Also, the “proliferative responses against irrelevant polypeptide (LSA1-J)” value in experiment [4] (Ag specificity control) is listed as “lack of responses”. Further, the “proliferative response in inguinal lymph nodes, maximal delta cpm” value in experiment [4] (S.L. (first value)) is 12525 cpm; in experiment [4] (printed 'in S.L'), 16189 cpm. In addition, in experiment [4] (S.L. or I.N. application, without mucosal adjuvant, recall polypeptide), the “proliferative responses in spleen cells” value is on record as “strong proliferative responses”. Moreover, the “phenotype of lymphoproliferative responses” value in experiment [4] (mucosal administration, abrogated by antibodies against CD4 but not by anti-CD8) is listed as “CD4 phenotype”. For the same substance, the “proliferative responses, mucosally versus subcutaneously immunized animals” value in experiment [4] (same dose, P<0.05) is “higher levels”.
With “Concanavaline A [CON A, reference compound]”, the “immune response (CFSE shift), positive control” value in experiment [5] (in vitro positive control) was “maximum immune response”.
Consider “Nh2-K(NεPam)GRQYIKANSKFIGITERGRILKEPVHGV-COOH [TT-pol. (HIV)]”, for which the “shift of fluorescence (CFSE), immune response” value in experiment [5] (mouse, in vivo) was “as intense as that provided by positive CON A control”.
